Literature values in patent US20060019940A1, “Novel benzoxazocines and their therapeutic use” (priority 2002, published 2006).

Assays:
[1] = test system: synaptosomal uptake of dopamine, norepinephrine and serotonin; settings: order of potency (+)-nefopam>(±)-nefopam>(−)-nefopam
[2] = order of potency (+)-nefopam>(±)-nefopam>(−)-nefopam

CN1CCO[C@@H](c2ccccc2)c2ccccc2C1 [(+)-nefopam]
dopamine, norepinephrine and serotonin uptake inhibitory properties compared with (−)-nefopam [1]: more potent
analgesic properties compared with (−)-nefopam [2]: more potent
